Measurements from patent publication US9440941B2, “Substituted chroman-6-yloxy-cycloalkanes and their use as pharmaceuticals” (SANOFI, priority 2013, dated 2016).

How the values were obtained:
human NCX1 [1] = target: T1, human NCX1 (Homo sapiens, UniProt P32418); assay: Inhibition of Ca2+ influx into cells (NCX1 reverse mode), FLIPR Fluo-4 assay; type: cell-based; conditions: inhibition of NCX1 in reverse mode (Ca2+ influx into cells); read-out: NCX1rv IC50
T1 construct: expressed in transfected cells
Procedure, shortened: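 CHO cells stably expressing human NCX1, loaded with Fluo-4 AM, preincubated with compound 45 min at 16 °C in pH 7.4 buffer (3.5 mM CaCl2). Reverse mode triggered by 20 µM gramicidin (final); Fluo-4 fluorescence read at 520 nm every 2 s. IC50 from percentage inhibition of max-minus-min fluorescence.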

human NCX1 [2] = target: T1, human NCX1; assay: Inhibition of Ca2+ efflux out of cells (NCX1 forward mode), FLIPR calcium assay; type: cell-based; conditions: CHO cells stably expressing human NCX1; Ca2+ efflux after Ionomycin; read-out: NCX1fw IC50 (inhibition of NCX1 in forward mode)
From the text: The sodium/calcium exchanger NCX1 can transport calcium ions and sodium ions through the cell membrane. The transport is an exchange of Ca^2+ and Na^+ in two directions depending on membrane potential and ion gradients. At the first direction, named “forward mode” or “calcium export mode”, Ca^2+ is transported out of the cell and Na^+ is transported into the cell. At the other direction, named “reverse mode” or “calcium import mode”, the transport directions are vice versa. The effect of the compounds of the invention on NCX1 was determined in CHO cells stably expressing human NCX1 (gene symbol SLC8A1; cf. WO 2009/115238). The assay is based on the monitoring of intracellular Ca^2+ concentrations using a calcium-sensitive fluorescence dye which is detected by means of a FLIPR device (Fluorimetric Imaging Plate Reader, Molecular Devices).
Assay Technology—Forward Mode
The assay is based on the monitoring of intracellular Ca^2+ concentrations using the PBX Calcium Assay Kit from BD (Becton, Dickinson and Company) with calcium indicator dye 51-9000177BKa (BD, 640177). CHO cells expressing NCX1 were loaded with the dye, and after a preincubation period with the test compound, lonomycin (Calbiochem, 407950) was added. lonomycin is an ionophor for Ca^2+ ions mediating an increase of intracellular Ca^2+ ions. Consequently, intracellular Ca^2+ ions are exchanged against extracellular Na^+ ions (Ca^2+ efflux, forward mode). The decrease of intracellular Ca^2+ ions was detected by measuring the fluorescence of the calcium indicator dye at a wavelength of 520 nm by a FLIPR device.
Briefly, similarly as for the reverse mode, for the forward mode transport assay 18000 cells per well were seeded into a 96 well microplate (Corning COSTAR 3904) and incubated overnight in culture medium (cf. above). A total volume of 100 μl medium per well was used. For the preparation of the FLIPR assay, the culture medium was removed from the plates and 100 μl of assay buffer (133.8 mM NaCl (Sigma, S5886); 4.7 mM KCl (Sigma, P3911); 1.25 mM MgCl2 (Merck, 1.05833.0250); 3.5 mM CaCl2 (Merck, 1.02083.0250); 5 mM glucose (Sigma, G7021); 10 mM Hepes (Sigma, H4034); pH 7.4)) were added to each well in a washing step. Assay buffer was removed, and 100 μl of a solution of the test compound in assay buffer in different concentrations were added into the wells. Further, 100 μl of dye solution (0.09% (v/v) calcium indicator dye, 9.1% (v/v) signal enhancer (from PBX Calcium Assay Kit); in assay buffer) were added into each well. The plates were incubated in the dark at room temperature for 60 min. Meanwhile a 10 μM solution of lonomycin in assay buffer (additionally containing 0.05% fetal calf serum (cf. above); 4° C.) was prepared and stored in the wells of a 96 well microplate (96 well microplate, polypropylene, U-shape (Greiner Bio-One, 650201)). The fluorescence monitoring was performed at 60 measuring points with measurement intervals of 2 sec. After the fifth measuring point, 50 μl of the lonomycin solution were added to each well of the assay plate to give a final lonomycin concentration of 2 μM. For the determination of the IC50 values the minimal fluorescence value was subtracted from the maximal fluorescence value for the fifteenth to fifty-fifth measuring points. The calculation of the IC50 values via the percentage inhibitions of Ca^2+ efflux out of cells (forward mode) effected by the test compound was performed in Biost@t Speed 2.0. “NCX1fw IC50” in Table 2 means the IC50 value (in μM (micromol/liter)) for inhibition of NCX1 in forward mode.

Row | Compound | IC50 (human NCX1 [1]) [nM] | IC50 (human NCX1 [2]) [nM]
1 | Cc1ccccc1C1CCc2cc(O[C@H]3CC[C@@H](C(=O)NCCO)CC3)ccc2O1 (single isomer, unassigned) [Example 269, cis-4-(2-o-tolyl-chroman-6-yloxy)-cyclohexanecarboxylic acid (2-hydroxy-ethyl)-amide] | 400 | 3100
2 | Cc1ccccc1C1CCc2cc(O[C@H]3CC[C@@H](C(=O)NCCO)CC3)ccc2O1 (single isomer, unassigned) [Example 270, cis-4-(2-o-tolyl-chroman-6-yloxy)-cyclohexanecarboxylic acid (2-hydroxy-ethyl)-amide] | 100 | 1000
3 | Cc1ccccc1[C@H]1CCc2cc(O[C@H]3CC[C@H](C(=O)NCCO)CC3)ccc2O1 [Example 267, trans-4-((R)-2-o-tolyl-chroman-6-yloxy)-cyclohexanecarboxylic acid (2-hydroxy-ethyl)-amide] | 200 | 4400
4 | N-[1-(Methoxymethyl)propyl]-4-(2-phenylchroman-6-yloxy)-cyclohexylamine [compound 133] | 1000 | 
5 | N-[2-(1,1-Dioxo-thiomorpholin-4-yl)ethyl]-4-(2-phenylchroman-6-yloxy)-cyclohexylamine [compound 138] | 600 | 
6 | N-[2-(1-Isopropylpiperidin-4-yl)ethyl]-4-(2-phenylchroman-6-yloxy)-cyclohexylamine [compound 136] | 1800 | 

The remaining lines, values ahead:

Row | IC50 (human NCX1 [1]) [nM] | IC50 (human NCX1 [2]) [nM] | Compound
7 | 600 |  | N-Cyclobutyl-4-(2-phenylchroman-6-yloxy)-cyclohexylamine [compound 142]
8 | 800 |  | N-Cyclopentyl-4-(2-phenylchroman-6-yloxy)-cyclohexylamine [compound 143]
9 | 600 |  | N-Pentyl-4-(2-phenylchroman-6-yloxy)-cyclohexylamine [compound 144]
